Laboratory results published in PMC9919139, “Sustainable Synthesis, Antiproliferative and Acetylcholinesterase Inhibition of 1,4- and 1,2-Naphthoquinone Derivatives” (Molecules, 2023).
Where two headings read alike, the source gives them in different places.

What was measured:
[1] = MTT cytotoxicity assay against HepG2 cell line; type: cell-based, human; conditions: human, HepG2 cells, HepG2, 24 h incubation, mean ± SD, read-out: EC50 (cytotoxicity, concentration leading to the death of 50% of the cells)
Procedure: (§1) A hepatocellular carcinoma cell line HepG2, recognized for studying the metabolism of anticancer drugs, was used. The viability of HepG2 cell line culture after 24 h incubation with the compounds using the MTT (3-[4,5-dimethylthiazol-2-yl]-2,5-diphenyl tetrazolium bromide) assay was evaluated, and doxorubicin (Doxo) was used as a positive control.
(§2) HepG2 human hepatocyte carcinoma cell line was purchased from European Collection of Authenticated Cell Cultures (ECACC). HepG2 cells (ECACCC# 85011430) were cultured in Dulbecco’s Modified Eagle´s Medium (DMEM) supplemented with 10% fetal bovine serum, antibiotic-antimycotic (100 U/mL penicillin-streptomycin and 0.25 μg amphotericin B) and 2 mM L-glutamine at 37 °C in an atmosphere containing 5% CO2. The 3-(4,5-dimethylthiazol-2-yl)-2,5-diphenyltetrazolium bromide (MTT) method, described in Gaspar et al., [50] was used for assaying cell viability. Briefly, the cells were grown in the supplemented medium in 96-well microplates in an incubator with 5% CO2 at 37 °C, until reaching 100% confluence. After growth, the medium was replaced by the compounds’ solutions at different concentrations. The compounds were solubilized in supplemented medium containing 0.5% DMSO final concentration. Cells treated only with medium containing 0.5% DMSO served as a negative control. After 24 h incubation, the compound’s solutions were replaced by 100 µL of 0.5 mg/mL MTT solution in DMEM culture medium and incubated at 37 °C, 5% CO2 for 2–4 h. The formed formazan crystals were dissolved in 200 µL of methanol and the absorbance at 595 nm was registered against 630 nm (reference wavelength). For each concentration of the compounds, the percentage of growth inhibition/cytotoxicity was evaluated considering 100% of viability for the absorbance of the negative control. Dose-response curves for each compound were plotted using the Graph Pa Prim 4.0 software and the effective concentration leading to the death of 50% of the cells (EC50) was calculated. All experiments were replicated at least six times.

[2] = molecular target: acetylcholinesterase (AChE) (Homo sapiens, UniProt P22303); assay: AChE inhibition assay (Ellman's colorimetric method); type: biochemical; conditions: for IC50: concentration that inhibits 50% of the AChE activity, read-out: AChEIC50
Procedure: The inhibition of acetylcholinesterase (AChE) enzymatic activity was measured using the Ellman’s colorimetric method with some alterations. Briefly, 325 μL of 50 mM Tris–HCl buffer (pH 8), 100 μL of a compound’s solution with 1% DMSO, and 25 μL of AChE (0.1 U/mL) in 50 mM Tris–HCl buffer pH 8 were incubated for 15 min. Subsequently, 75 μL of acetylthiocholine iodide (AChI) (0.023 mg/mL) and 475 μL of 3 mM 5,5′-dithiobis(2-nitrobenzoic acid) (DTNB) in Tris–HCl buffer (pH 8) containing 0.05 M NaCl and 0.021 M MgCl2 were added to initiate the reaction. The initial rate of the enzymatic reaction was quantified by measuring the absorbance at 405 nm for 5 min (V[compound]). A control reaction was carried out using 1% DMSO water solution, instead of the compound’s solution, and this initial rate was considered 100% of the enzymatic activity, Vcontrol. The percentage of AChE inhibition (I) for various concentrations of the different compounds was determined as the ratio of V[compound] and Vcontrol. For each compound, both the AChEIC50 value (the concentration that inhibits 50% of the AChE activity) and the percentage of inhibition at the compound concentration of 50 µM (Inhibition50µM) were calculated by plotting I for each compound concentration. All the assays were carried out in triplicate.

[3] = Cyclic voltammetry in acetonitrile; type: physicochemical; conditions: for Ipa/Ipc: Tables S1/S2, acetonitrile; for Epa. Epc: Tables S1/S2, peak separation; for ∆E (I) / E1/2 (I) / Epc (I): first reduction wave; for ∆E (I) / E1/2 (I) / Epc (I) / Epc (II) / ∆E (II) / E1/2 (II): scan rate 0.100 V·s−1; for Epc (II) / ∆E (II) / E1/2 (II): second reduction wave
Source text: To obtain an insight into the electronic character of the studied naphthoquinone derivatives and to find out possible relationships with their potential biological activities, the electrochemical behavior of 1,4-NQ (1) and 1,2-NQ (2) and their 2-substituted-1,4-NQ (3a–f) and 4-substituted-1,2-NQ derivatives (4a–h), respectively, were studied by cyclic voltammetry (CV) in aprotic medium (CH3CN + TBAP, 0.1 mol.L^−^1) and the electrochemical selected data are listed in Table 3 (for complete electrochemical data, see Tables S1 and S2, supplementary material).
The redox potentials were measured by cyclic voltammetry using an EG&G Princeton Applied Research (PAR) Model 273A potentiostat/galvanostat monitored by a personal computer with the Electrochemistry PowerSuite v2.51 software from PAR. Cyclic voltammograms were obtained in 1 mM of compounds in anhydrous acetonitrile solutions containing tetrabutylammonium hexafluorophosphate (TBAPF6) 0.1 M as supporting electrolyte. A three-electrode configuration cell was used with a homemade platinum disk working electrode (1.0 mm diameter) probed by a Luggin capillary connected to a silver-wire pseudo-reference electrode and a platinum wire auxiliary electrode. The potentials were scanned from −1.8 to 1.8 V at a scan rate of 100 mV·s^−^1. All measurements were done at room temperature and the solutions were deaerated with nitrogen atmosphere before use. All the potentials reported were measured against the ferrocene/ferrocenium redox couple as internal standard and corrected to SCE (using the ferrocenium/ferrocene redox couple E1/2 = 0.40 V vs. SCE).

[4] = system: HepG2 human hepatocyte carcinoma cell line; assay: MTT cytotoxicity assay against HepG2 cell line; type: cell-based; conditions: HepG2, 24 h incubation, mean ± SD, read-out: EC50 (cytotoxicity, concentration leading to the death of 50% of the cells)
Procedure: as §1, §2

[5] = read-out: Inhibiton50µM (μM±SD)
[6] = Tables S1/S2, every redox process listed, acetonitrile, vs SCE, 100 mV.s-1

Chain of acetylcholinesterase (AChE) (P22303 32-614): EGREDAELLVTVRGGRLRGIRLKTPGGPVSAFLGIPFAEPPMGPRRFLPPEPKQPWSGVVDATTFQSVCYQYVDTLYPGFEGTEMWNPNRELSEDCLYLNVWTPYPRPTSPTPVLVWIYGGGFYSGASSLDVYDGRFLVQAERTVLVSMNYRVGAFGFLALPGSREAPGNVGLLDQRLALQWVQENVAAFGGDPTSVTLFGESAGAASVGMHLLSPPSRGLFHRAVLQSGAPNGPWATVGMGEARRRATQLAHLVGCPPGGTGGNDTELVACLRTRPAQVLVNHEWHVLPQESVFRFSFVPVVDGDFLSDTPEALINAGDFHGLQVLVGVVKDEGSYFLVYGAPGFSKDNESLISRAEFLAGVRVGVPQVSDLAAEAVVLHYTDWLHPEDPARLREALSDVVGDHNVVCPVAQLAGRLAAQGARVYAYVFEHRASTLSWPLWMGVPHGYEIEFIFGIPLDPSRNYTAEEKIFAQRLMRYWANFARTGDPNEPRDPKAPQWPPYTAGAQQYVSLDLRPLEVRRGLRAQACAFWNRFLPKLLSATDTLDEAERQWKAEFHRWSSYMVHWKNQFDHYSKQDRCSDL

SMILES: N#Cc1ccc(NC2=CC(=O)c3ccccc3C2=O)cc1 [Compound 3d, 2-(4-aminobenzonitrile)-1,4-naphthoquinone]
- EC50 at 24 h [1]: 79.4 ± 1.4 µM
- inhibition at 50 µM [2, 5]: 25.8 ± 3%
- Ipa/Ipc ([3]; 100 mV.s-1): 1.0
- E1/2 [3, 6]: -0.70 V
- Epa [3, 6]: -0.66 V
- Epa. Epc ([3]; acetonitrile, 100 mV.s-1): 80 mV
- ∆E (I) ([3]; acetonitrile): 80 mV
- E1/2 (I) ([3]; acetonitrile, vs SCE): −0.70 V
- Epc (I) ([3]; acetonitrile, vs SCE): −0.74 V

SMILES: O=C1C=C(Nc2ccccc2O)c2ccccc2C1=O [Compound 4h]
- EC50 at 24 h [1]: 9.1 ± 3.3 µM
- IC50 [2]: 16 µM
- inhibition at 50 µM ([2]; read-out: Inhibition50µM (AChE inhibition)): 85%
- inhibition at 50 µM [2, 5]: 85.3 ± 1.3%
- Epc (I) ([3]; acetonitrile, vs SCE): −0.57 V
- Epc (II) ([3]; acetonitrile, vs SCE): −0.98 V

SMILES: Nc1ccc(NC2=CC(=O)C(=O)c3ccccc32)cc1 [Compound 4a]
- EC50 [4]: 3 µM
- EC50 at 24 h [1]: 2.7 ± 1 µM
- inhibition at 50 µM [2, 5]: 51.7 ± 2.1%
- Epc [3, 6]: -0.67 V
- Epc (I) ([3]; acetonitrile, vs SCE): −0.67 V

SMILES: COc1ccc(NC2=CC(=O)C(=O)c3ccccc32)cc1 [Compound 4c]
- EC50 at 24 h [1]: 6.5 ± 1.4 µM
- inhibition at 50 µM [2, 5]: 45.8 ± 2.9%
- Epc (I) ([3]; acetonitrile, vs SCE): −0.67 V

SMILES: Nc1ccc(NC2=CC(=O)c3ccccc3C2=O)cc1 [Compound 3a, 2-(1,4-Phenylenediamine)-1,4-naphthoquinone]
- EC50 at 24 h [1]: 8.7 ± 1.3 µM
- inhibition at 50 µM [2, 5]: 23.4 ± 2.5%
- Ipa/Ipc ([3]; 100 mV.s-1): 0.9
- E1/2 [3, 6]: -0.82 V
- Epa. Epc ([3]; acetonitrile, 100 mV.s-1): 80 mV
- ∆E (I) ([3]; acetonitrile): 80 mV
- E1/2 (I) ([3]; acetonitrile, vs SCE): −0.82 V
- Epc (I) ([3]; acetonitrile, vs SCE): −0.86 V
- Epc (II) ([3]; acetonitrile, vs SCE): −1.42 V

SMILES: CCCCNC1=CC(=O)c2ccccc2C1=O [Compound 3e, 2-(butan-1-amine)-1,4-naphthoquinone]
- EC50 at 24 h [1]: 35.8 ± 1.5 µM
- inhibition at 50 µM [2, 5]: 48.3 ± 1.6%
- Ipa/Ipc ([3]; 100 mV.s-1): 1.0
- Epa. Epc ([3]; acetonitrile, 100 mV.s-1): 100 mV
- ∆E (I) ([3]; acetonitrile): 70 mV
- E1/2 (I) ([3]; acetonitrile, vs SCE): −0.95 V
- Epc (I) ([3]; acetonitrile, vs SCE): −0.98 V
- ∆E (II) ([3]; acetonitrile): 100 mV
- E1/2 (II) ([3]; acetonitrile, vs SCE): −1.42 V
- Epc (II) ([3]; acetonitrile, vs SCE): −1.47 V

SMILES: COc1ccc(NC2=CC(=O)c3ccccc3C2=O)cc1 [Compound 3c, 2-(4-methoxyaniline)-1,4-naphthoquinone]
- EC50 at 24 h [1]: 13 ± 1.8 µM
- inhibition at 50 µM [2, 5]: 25.9 ± 3%
- Ipa/Ipc ([3]; 100 mV.s-1): 1.0
- Epa. Epc ([3]; acetonitrile, 100 mV.s-1): 120 mV
- ∆E (I) ([3]; acetonitrile): 70 mV
- E1/2 (I) ([3]; acetonitrile, vs SCE): −0.82 V
- Epc (I) ([3]; acetonitrile, vs SCE): −0.86 V
- Epc (II) ([3]; acetonitrile, vs SCE): −1.34 V

SMILES: N#Cc1ccc(NC2=CC(=O)C(=O)c3ccccc32)cc1 [Compound 4d]
- EC50 at 24 h [1]: 26.8 ± 1.1 µM
- inhibition at 50 µM [2, 5]: 41.6 ± 2.4%
- Epc (I) ([3]; acetonitrile, vs SCE): −0.47 V
- Epc (II) ([3]; acetonitrile, vs SCE): −0.84 V

SMILES: CCCCNC1=CC(=O)C(=O)c2ccccc21 [Compound 4e, 4-(butan-1-amine)-1,2-naphthoquinone]
- EC50 at 24 h [1]: 26.8 ± 1.1 µM
- inhibition at 50 µM [2, 5]: 62.4 ± 1.5%
- E1/2 [3, 6]: -0.71 V
- Epc [3, 6]: -0.78 V
- Epa. Epc ([3]; acetonitrile, 100 mV.s-1): 150 mV
- Epc (I) ([3]; acetonitrile, vs SCE): −0.78 V

SMILES: COc1cccc2c1C(=O)c1c(O)c3c(c(O)c1C2=O)C[C@@](O)(C(=O)CO)C[C@@H]3O[C@H]1C[C@H](N)[C@H](O)[C@H](C)O1 [Doxorubicin, doxorubicin, reference compound]
- EC50 [4]: 1.4 µM
- EC50 at 24 h [1]: 1.42 ± 1 µM

SMILES: CCN(CC)C1=CC(=O)c2ccccc2C1=O [Compound 3f, 2-(diethylamine)-1,4-naphthoquinone]
- EC50 at 24 h [1]: 64.7 ± 1.4 µM
- inhibition at 50 µM [2, 5]: 47.9 ± 2.5%
- Ipa/Ipc ([3]; 100 mV.s-1): 1.0
- E1/2 [3, 6]: -0.94 V
- Epc [3, 6]: -0.97 V
- ∆E (I) ([3]; acetonitrile): 70 mV
- E1/2 (I) ([3]; acetonitrile, vs SCE): −0.94 V
- Epc (I) ([3]; acetonitrile, vs SCE): −0.97 V

SMILES: O=C1C=C(Nc2ccc(O)cc2)c2ccccc2C1=O [Compound 4b]
- EC50 at 24 h [1]: 7.1 ± 1.8 µM
- IC50 [2]: 30 µM
- inhibition at 50 µM [2, 5]: 74.1 ± 1.1%
- Epc [3, 6]: -0.61 V
- Epc (I) ([3]; acetonitrile, vs SCE): −0.61 V

SMILES: O=C1C=C(Nc2ccc(O)cc2)C(=O)c2ccccc21 [Compound 3b, 2-(4-aminophenol)-1,4-naphthoquinone]
- EC50 at 24 h [1]: 21.4 ± 3.9 µM
- inhibition at 50 µM [2, 5]: 16.4 ± 2%
- Ipa/Ipc ([3]; 100 mV.s-1): 1.0
- E1/2 [3, 6]: -0.81 V
- Epc [3, 6]: -0.84 V
- ∆E (I) ([3]; acetonitrile): 70 mV
- E1/2 (I) ([3]; acetonitrile, vs SCE): −0.81 V
- Epc (I) ([3]; acetonitrile, vs SCE): −0.84 V

SMILES: CCN(CC)C1=CC(=O)C(=O)c2ccccc21 [Compound 4f, 4-(diethylamine)-1,2-naphthoquinone]
- EC50 at 24 h [1]: 23.1 ± 1.7 µM
- inhibition at 50 µM [2, 5]: 54.7 ± 2%
- Ipa/Ipc ([3]; 100 mV.s-1): 0.9
- E1/2 [3, 6]: -0.63 V
- Epa. Epc ([3]; acetonitrile, 100 mV.s-1): 120 mV
- Epc (I) ([3]; acetonitrile, vs SCE): −0.52 V
- ∆E (II) ([3]; acetonitrile): 120 mV
- E1/2 (II) ([3]; acetonitrile, vs SCE): −0.63 V
- Epc (II) ([3]; acetonitrile, vs SCE): −0.69 V

SMILES: O=C1C=C(Nc2ccc(Nc3ccccc3)cc2)c2ccccc2C1=O [Compound 4g]
- EC50 at 24 h [1]: 9.2 ± 2.3 µM
- inhibition at 50 µM [2, 5]: 75.3 ± 1.3%
- Epc (I) ([3]; acetonitrile, vs SCE): −0.63 V
- Epc (II) ([3]; acetonitrile, vs SCE): −1.43 V
